Results from US20230082929A1, “METHODS OF GENERATING AND USING SENESCENT-INDUCED CELLS FOR TREATMENT OF CANCER AND COMPOSITIONS RELATING THERETO” (The Wistar Institute of Anatomy and Biology, priority 2020, published 2023).
Blank lines part the entries; values can stand above or below the compound they belong to.

What was measured:
UPK10 cells = test: Senescence induction in UPK10 cells (SA-β-Gal, SPiDER SA-β-Gal, immunoblot); format: cell-based, mouse
Protocol: (§1) SA-β-Gal staining was performed as previously described (Nacarelli et al., 2019). Briefly, cells were fixed for 5 mins at room temperature in 2% formaldehyde/0.2 glutaraldehyde in PBS. After washing twice with PBS, cells were stained at 37° C. overnight in a non-CO2 incubator in staining solution (40 mM Na2HPO4, pH 6.0, 150 mM NaCl, 2 mM MgCl2, 5 mM K3Fe(CN)6, 5 mM K4Fe(CN)6, and 1 mg/ml X-gal. After counterstaining with Nuclear Fast Red solution (Ricca, Cat. No: R5463200500), slides were subjected to an alcohol dehydration series and mounted with Permount (FisherScientific. Cat. No: SP15-100). Slides were examined using a Zeiss AxioImager A2.
(§2) UPK10 and ID8 cells were treated with […], or a combination for three days. The drugs were then released from drug treatment and cultured for three days or extended period as indicated. The senescent cells were labelled with SPiDER-0 Gal Cellular Senescence Detection Kit (Dojindo, Cat. No: SG02-10) following the manufacture's instruction. Both senescent and non-senescent cells were sorted using flow cytometry.
(§3) Cells were lysed in 1× sample buffer (2% SDS, 10% glycerol, 0.01% bromophenol blue, 62.5 mM Tris, pH 6.8, and 0.1 M DTT) and heated to 95° C. for 10 min. Protein concentrations were determined using the protein assay dye (Bio-Rad. Cat. No: #5000006) and Nanodrop. An equal amount of total protein was resolved using SDS-PAGE gels and transferred to PVDF membranes at 110 V for 2 hours at 4° C. Membranes were blocked with 5% nonfat milk in TBS containing 0.1% Tween 20 (TBS-T) for 1 hour at room temperature. Membranes were incubated overnight at 4° C. in the primary antibodies in 4% BSA/TBS+0.025% sodium azide. Membranes were washed four times in TBS-T for 5 min at room temperature, after which they were incubated with HRP-conjugated secondary antibodies (Cell Signaling Technology. Cat. No: 7076S, 7074S) for 1 hour at room temperature. After washing four times in TBS-T for 5 min at room temperature, proteins were visualized on film after incubation with SuperSignal West Pico PLUS Chemiluminescent Substrate (Thermo Fisher Scientific. Cat. No: 34580).

SASP factors [1] = test: SASP factor expression (qRT-PCR) and secretion (antibody array) in UPK10 cells; format: cell-based, mouse
Protocol: UPK10 and ID8 cells were treated with […], or a combination for three days. The drugs were then released from drug treatment and cultured for three days or extended period as indicated. The senescent cells were labelled with SPiDER-0 Gal Cellular Senescence Detection Kit (Dojindo, Cat. No: SG02-10) following the manufacture's instruction. Both senescent and non-senescent cells were sorted using flow cytometry. Mouse Cytokine Array C1 kit (RayBiotech. Cat. No: AAM-CYT-1-2) was used for cytokine analysis following the manufacturer's guidelines. Briefly, cells were washed once and cultured in serum-free medium for 48 hrs. Conditioned medium was filtered (0.2 μm) and then subjected to cytokine-array analysis. After collection of conditional media, the cell number of each sample was counted. The intensities of array dots were visualized on film after incubation with SuperSignal West Pico PLUS Chemiluminescent Substrate (Thermo Fisher Scientific. Cat. No: 34580). The integrated density was measured using Image J and normalized to the cell number from which the conditioned medium was generated. Total RNA was isolated using Trizol (Invitrogen) according to the manufacturer's instruction. Extracted RNAs were used for reverse-transcriptase PCR (RT-PCR) with High-Capacity cDNA Reverse Transcription Kit (Thermo fisher, Cat. No: 4368814). Quantitative PCR (qPCR) was performed using iTaq™ Universal SYBR® Green Supermix (BIO-RAD, Cat. No: 1725121) and QuantStudio 3 Real-Time PCR System.

ID8-Defb29/Vegf-a cells = test: Cisplatin-induced senescence, SA-β-gal staining of ID8-Defb29/Vegf-a cells; format: cell-based, mouse; settings: 2 μM Cisplatin for 48 hours
Protocol: For oncogene-induced senescence, IMR90 cells were infected with retrovirus produced by pBABE-puro-H-RAS^G12V (Addgene) at 37° C. for 24 hr. A second round of infection was performed on the same target cells. Infected cells were drug-selected using 3 μg/ml puromycin (Nacarelli et al., 2019). For Etoposide-induced senescence, IMR90 or OVCAR3 cells at approximately 60-70% confluency were treated with 50 μM or 2 μM Etoposide for 48 hours. The treated cells were cultured in fresh medium and harvested at day 8. For Cisplatin-induced senescence, OVCAR3 or ID8-Defb29/Vegf-a cells at approximately 60-70% confluency were treated with 2 μM Cisplatin for 48 hours. The treated cells were cultured in fresh medium and harvested at day 8.
as §1

SASP factors [2] = test: SASP factor expression by qRT-PCR in ID8 cells; format: cell-based, mouse
Protocol: UPK10 and ID8 cells were treated with […], or a combination for three days. The drugs were then released from drug treatment and cultured for three days or extended period as indicated. The senescent cells were labelled with SPiDER-0 Gal Cellular Senescence Detection Kit (Dojindo, Cat. No: SG02-10) following the manufacture's instruction. Both senescent and non-senescent cells were sorted using flow cytometry. Total RNA was isolated using Trizol (Invitrogen) according to the manufacturer's instruction. Extracted RNAs were used for reverse-transcriptase PCR (RT-PCR) with High-Capacity cDNA Reverse Transcription Kit (Thermo fisher, Cat. No: 4368814). Quantitative PCR (qPCR) was performed using iTaq™ Universal SYBR® Green Supermix (BIO-RAD, Cat. No: 1725121) and QuantStudio 3 Real-Time PCR System.

TOP1cc = target: T1, TOP1cc (Mus musculus, UniProt Q04750); test: Immunoblot of TOP1cc and SASP regulators in sorted UPK10 cells; format: cell-based
T1 construct: endogenous in cells; host or cells: UPK10 mouse ovarian cancer cells, sorted senescent and non-senescent fractions
T1 sequence (Q04750 1-767): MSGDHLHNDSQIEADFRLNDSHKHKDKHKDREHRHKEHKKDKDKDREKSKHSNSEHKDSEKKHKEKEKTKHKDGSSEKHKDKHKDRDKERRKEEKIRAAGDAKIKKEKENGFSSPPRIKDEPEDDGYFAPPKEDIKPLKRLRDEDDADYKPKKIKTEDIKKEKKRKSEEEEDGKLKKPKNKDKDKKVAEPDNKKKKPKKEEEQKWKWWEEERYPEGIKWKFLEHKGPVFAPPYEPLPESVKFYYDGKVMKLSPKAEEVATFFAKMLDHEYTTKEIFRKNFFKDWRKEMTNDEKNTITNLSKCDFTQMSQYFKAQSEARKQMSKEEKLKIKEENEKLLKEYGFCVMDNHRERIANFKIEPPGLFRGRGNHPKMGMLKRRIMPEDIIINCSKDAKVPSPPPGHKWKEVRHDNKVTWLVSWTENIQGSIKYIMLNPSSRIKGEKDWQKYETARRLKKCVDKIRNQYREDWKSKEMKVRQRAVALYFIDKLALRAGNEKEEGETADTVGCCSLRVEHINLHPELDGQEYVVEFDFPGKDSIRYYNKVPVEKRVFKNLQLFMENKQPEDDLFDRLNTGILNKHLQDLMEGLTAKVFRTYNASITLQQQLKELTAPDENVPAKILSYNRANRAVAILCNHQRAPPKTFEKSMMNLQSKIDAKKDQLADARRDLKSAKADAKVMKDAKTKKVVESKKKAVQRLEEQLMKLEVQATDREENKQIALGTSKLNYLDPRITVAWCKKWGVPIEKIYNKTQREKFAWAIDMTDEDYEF
Protocol: as §2, §3
• anti-Topoisomerase I-DNA Covalent Complexes (TOP1cc) (clone 1.1A) (Millipore. Cat. No: MABE1084), 1:1000 for slot blot • anti-TOP1 (Proteintech. Cat. No: 20705-1-AP), 1:1000 for immunoblotting • anti-cGAS (D9) (Santa Cruz. Cat. No: sc-515777), 1:1000 for immunoblotting; • anti-Cyclin A (H432) (Santa Cruz. Cat. No: sc-751), 1:1000 for immunoblotting; • anti-βactin (Sigma. Cat. No: A2228), 1:10000 for immunoblotting.

[3] = cisplatin three days, three days of release

Compound: N.N.[Cl][Pt][Cl] [cisplatin, Cisplatin]
cell proliferation marker cyclin A (UPK10 cells; [3]): decrease in cell proliferation marker cyclin A
markers of senescence (SA-β-Gal activity, p16, γH2AX) (UPK10 cells; [3]): induction of markers of senescence including senescence-associated β-galactosidase (SA-β-Gal) activity, p16 and γH2AX
concentration chosen on optimal induction of SASP factors IL1β, IL8, CXCL10 in a dose-titration study (SASP factors [1]; UPK10 cells): 10 µM
treated cells in which senescence was induced (ID8-Defb29/Vegf-a cells): ~100%

Compound: Cc1ccc2c(=O)c3cccc(CC(=O)O)c3oc2c1C [DMXAA]
SASP factor levels compared with senescent cells sorted from cisplatin and irinotecan combination treatment (SASP factors [1]; UPK10 cells): significantly lower levels
expression and secretion of SASP factors (SASP factors [1]; UPK10 cells, DMXAA as control): sufficient to increase the expression and secretion of SASP factors

TOP1cc levels in sorted senescent cells (TOP1cc; compared with cisplatin-induced senescent cells, UPK10): increased by irinotecan addition
TOP1cc levels in sorted non-senescent cells (TOP1cc; compared with vehicle control treated non-senescent cells, UPK10): notably higher
Compound: CCc1c2c(nc3ccc(OC(=O)N4CCC(N5CCCCC5)CC4)cc13)-c1cc3c(c(=O)n1C2)COC(=O)[C@]3(O)CC [irinotecan]
SASP expression in cisplatin-induced senescent ID8 cells (SASP factors [2]): boosts SASP expression
percentage of senescent cells induced by cisplatin with or without irinotecan (SPiDER SA-β-Gal) (UPK10 cells): comparable
SA-β-Gal activity (SPiDER) (UPK10 cells; irinotecan alone): also induced SA-β-Gal activity
expression of SASP factors at the mRNA levels (qRT-PCR) (SASP factors [1]; sorted senescent UPK10 cells induced by cisplatin): significantly increased the expression of SASP factors
SASP regulators phospho-p65 NF-κB and phosphor-p38 MAPK (TOP1cc; sorted senescent UPK10 cells): increase in SASP regulators such as phospho-p65 NF-κB and phosphor-p38 MAPK
